Source: patent US20170292959A1, “PLASMIDS COMPRISING INTERNAL RIBOSOMAL ENTRY SITES AND USES THEREOF” (Dana-Farber Cancer Institute, Inc., priority 2014, published 2017)
Where a SMILES comes first, the peptide text is derived from it. The star is where a group is joined. Cbz = O=C(OCc1ccccc1)*

Experiments:
HIF1α = experiment: Pilot ORF-luciferase stabilization experiment in 293FT cells (Fluc/Rluc); type: cell-based, human; conditions: DMOG 1 μM, 24 hours
Procedure: (§1) FIGS. 6A-6B depict the pharmacological stabilization of firefly luciferase fusion protein. 293FT cells were transiently transfected with plasmids encoding unfused Fluc (pIRIF) or the indicated ORF-firefly luciferase (Fluc) fusions and then treated for 24 hours with DMOG (1 μM), MG132 (10 μM), or vehicle (DMSO). HIF1α-dPA is a HIF1α variant lacking both prolyl hydroxylation sites (33). Shown for each plasmid are Fluc/Rluc values (FIG. 6A) and Fold change in Fluc/Rluc compared to DMSO treatment (FIG. 6B). Data are mean±SD, n=4.
(§2) In pilot experiments 293FT embryonic kidney cells grown in multiwell plates were transfected with the ORF-luciferase library (one ORF per well) and treated with the proteasome inhibitor MG132, the hydroxylase inhibitor dimethyloxalylglycine (DMOG), or vehicle. Fluc/Rluc values measured 36 to 48 hours later were stable over a wide range of input plasmid concentrations (FIG. 5).

endogenous IKZF1 = experiment: Immunoblot of endogenous protein in leukemia and myeloma cells; type: cell-based, human; conditions: U937, MM1S and L363 cells; pretreated with MG132 or MLN4924
Excerpt: (§3) Whole cell extracts were resolved by SDS-polyacrylamide gel electrophoresis, transferred onto a nitrocellulose membrane, and probed with the indicated primary antibodies. Bound antibodies were detected with horseradish peroxidase-conjugated secondary antibodies (Pierce) and enhanced chemiluminescence (ECL) western blotting detection regents (Pierce) or Immobilon western chemiluminescent horseradish peroxidase substrate (Millipore).
(§4) For cycloheximide assays, cells were pretreated with DMSO or LEN (2 μM) for 1 hour, and then 100 μg/ml cycloheximide (Sigma) was added into the DMEM growth medium.

endogenous IKZF3 = experiment: Immunoblot of endogenous protein in myeloma cells; type: cell-based, human; conditions: MM1S and L363 cells; pretreated with MG132 or MLN4924
Excerpt: as §3, §4

proteasomal substrates = experiment: Pilot ORF-luciferase stabilization experiment in 293FT cells (Fluc/Rluc); type: cell-based, human; conditions: MG132 10 μM, 24 hours
Procedure: as §1, §2

IKZF1 = experiment: Exogenous IKZF protein level in 293FT cells (Fluc/Rluc ratio, HA immunoblot); type: cell-based, human; conditions: 12 hours; for effect on down-regulation of exogenous IKZF1 by lenalidomide: with lenalidomide 2 μM, MLN4924 1 μM or MG132 10 μM
Procedure: To verify the change of Fluc/Rluc of ORFs obtained from the 384-well high-throughput screen, each clone was further tested in a 96 well format. […] On the day of transfection 96-well polypropylene plates (Greiner) were used to prepare the transfection mixture. First, a plasmid mixture containing 240 ng of ORF luciferase fusion clone and 480 ng of pcDNA3 was diluted into 120 μl of Opti-MEM reduced serum. Next 14.4 μL of Lipofectamine 2000 was diluted into 120 μl of Opti-MEM reduced serum. 5 minutes later, the plasmid solution was mixed with the diluted Lipofectamine 2000 using a multi-channel pipette. […] 24 hours after transfection, cells were treated with LEN (2 μM) or DMSO in quadruplicate. […] The ratio of FLuc/Rluc was calculated for each well. To determine the change of Fluc/Rluc for each ORF, the averaged Fluc/Rluc of LEN treated wells was divided by that of DMSO treated wells. A 2-tailed Student's t test was performed to determine the statistical significance. P value <0.05 was considered significant.
as §3

myeloma = conditions: alone and in combination with lenalidomide; cited from earlier work
IRF4 [1] = experiment: Immunoblot of endogenous protein in myeloma cells; type: cell-based, human; conditions: LEN 2 μM
Excerpt: as §3

IRF4 mRNA = experiment: Real-time qPCR; type: cell-based, human; conditions: MM1S cells treated with lenalidomide
Procedure: Total RNA was extracted using Qiagen RNeasy Mini Kit with on-column DNase digestion. Total RNA was reverse transcribed into first-strand cDNA using AffinityScript QPCR cDNA Synthesis Kit (Agilent) with random primers. Real-time PCR was performed in duplicate using RT2 SYBR Green/ROX qPCR Master Mix (Qiagen) and the Mx3000P QPCR system (Stratagene). Values were averaged to calculate the expression level and normalized against the level of RPS18. PCR primers are as follows: […]

IRF4 [2] = conditions: at least indirectly; cited from earlier work
[3] = target: IKZF2 with the reciprocal change (H141Q) (Homo sapiens, UniProt Q9UKS7, H141Q); conditions: reciprocal change in IKZF2
Excerpt: (§5) Human IKZF4 cDNA clone was PCR amplified from ETS clone HsCD00295530 (PlasmID, DF/HCC DNA Resource Core), and then cloned into pDONR223 via BP gateway recombination. Human CRBN, human IKZF1 splicing variant 2 (IKZF1-V2), human IKZF2 splicing variant 2 (IKZF2-V2), human IKZF5 and human IRF4 in pDONR223 entry vectors were obtained from the human ORFeome Collection (DF/HCC DNA Resource Core). IKZF1 splicing variant 1 (IKZF1-V1) cDNA and human IKZF2 splicing variant 1 (IKZF2-V1) cDNA were generated by overlapping PCR and cloned into pDONR223 via BP gateway recombination. IKZF4, IKZF1-V1 and IKZF2-V1 were cloned into pIRIGF via LR gateway recombination. IKZF1/2 chimeras (IKZF12 H1, IKZF12 H2, IKZF12 H3, IKZF12 H4, IKZF21 H5, IKZF21 H6, IKZF21 H7, IKZF2 H8, IKZF121 and IKZF212), IKZF1-V2-Q146H, IKZF1-V2-H176P/L177F, IKZF2-V1-H141Q, IKZF2-V1-P171H/F172L, IKZF1-V1-Q146H, IKZF3-Q147H mutants were generated via overlapping PCR and cloned into pIRIGF via LR gateway recombination. IKZF1-V2, IKZF2-V2, IKZF3, IKZF4, IKZF5 and IRF4 were cloned into plenti-UBC-gate-3xHA-pGK-PUR via LR gateway recombination.

IKZF1 Q146H = IKZF1 Q146H (Homo sapiens, UniProt Q13422, Q146H); conditions: IKZF1 residue Q146 changed to histidine
Excerpt: as §5

IRF4 [4] = target: T1, IRF4 (Homo sapiens, UniProt Q15306); experiment: Exogenous protein level in 293FT cells (Fluc/Rluc ratio, HA immunoblot); type: cell-based; conditions: lenalidomide 2 μM, 12 hours
T1 construct: expressed in transfected cells; host or cells: 293FT
T1 sequence (Q15306 whole entry): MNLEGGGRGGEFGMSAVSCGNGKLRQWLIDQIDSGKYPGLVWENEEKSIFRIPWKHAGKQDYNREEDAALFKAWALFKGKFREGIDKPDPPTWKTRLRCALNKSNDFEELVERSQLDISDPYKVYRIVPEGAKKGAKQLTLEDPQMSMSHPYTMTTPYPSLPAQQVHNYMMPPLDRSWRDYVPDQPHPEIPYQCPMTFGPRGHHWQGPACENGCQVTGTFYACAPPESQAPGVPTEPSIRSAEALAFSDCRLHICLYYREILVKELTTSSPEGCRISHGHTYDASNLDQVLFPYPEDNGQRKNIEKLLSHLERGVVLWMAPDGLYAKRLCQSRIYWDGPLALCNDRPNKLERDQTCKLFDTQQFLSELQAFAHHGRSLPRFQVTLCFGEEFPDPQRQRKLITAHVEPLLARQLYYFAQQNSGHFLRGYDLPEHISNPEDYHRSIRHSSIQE
Procedure: (§6) To verify the change of Fluc/Rluc of ORFs obtained from the 384-well high-throughput screen, each clone was further tested in a 96 well format. The day before transfection, 293FT cells were seeded into solid opaque 96-well plates (BD biosciences) with 20,000 cells in 100 μl of DMEM culture media per well. On the day of transfection 96-well polypropylene plates (Greiner) were used to prepare the transfection mixture. First, a plasmid mixture containing 240 ng of ORF luciferase fusion clone and 480 ng of pcDNA3 was diluted into 120 μl of Opti-MEM reduced serum. Next 14.4 μL of Lipofectamine 2000 was diluted into 120 μl of Opti-MEM reduced serum. 5 minutes later, the plasmid solution was mixed with the diluted Lipofectamine 2000 using a multi-channel pipette. After 30 minutes, 28 μl of DNA/lipofectamine mixture was added to each well of the 96 well plates seeded with 293FT cells (8 wells for each ORF). […] The ratio of FLuc/Rluc was calculated for each well. […]
as §3

IKZF4 = target: T2, IKZF4 (Homo sapiens, UniProt Q9H2S9); experiment: Exogenous IKZF protein level in 293FT cells (Fluc/Rluc ratio, HA immunoblot); type: cell-based; conditions: lenalidomide 2 μM, 12 hours
T2 construct: expressed in transfected cells; host or cells: 293FT
T2 sequence (Q9H2S9 whole entry): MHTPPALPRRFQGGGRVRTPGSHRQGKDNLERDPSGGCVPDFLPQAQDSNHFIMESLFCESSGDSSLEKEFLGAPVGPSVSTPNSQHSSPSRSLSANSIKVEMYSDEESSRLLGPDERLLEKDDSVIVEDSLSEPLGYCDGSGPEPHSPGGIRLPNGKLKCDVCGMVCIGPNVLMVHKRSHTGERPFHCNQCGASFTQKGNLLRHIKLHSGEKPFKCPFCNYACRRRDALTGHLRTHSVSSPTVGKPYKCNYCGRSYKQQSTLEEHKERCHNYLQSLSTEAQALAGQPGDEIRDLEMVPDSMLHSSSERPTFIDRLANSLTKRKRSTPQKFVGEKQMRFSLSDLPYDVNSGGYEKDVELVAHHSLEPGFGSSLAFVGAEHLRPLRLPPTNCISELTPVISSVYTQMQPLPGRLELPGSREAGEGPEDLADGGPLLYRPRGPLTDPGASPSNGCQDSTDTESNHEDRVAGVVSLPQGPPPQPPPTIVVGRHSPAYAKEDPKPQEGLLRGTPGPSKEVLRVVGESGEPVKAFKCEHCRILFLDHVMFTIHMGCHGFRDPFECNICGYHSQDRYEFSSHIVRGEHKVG
Procedure: as §6, §3

IKZF5 = target: T3, IKZF5 (Homo sapiens, UniProt Q9H5V7); experiment: as above; type: cell-based; conditions: lenalidomide 2 μM, 12 hours
T3 construct: expressed in transfected cells; host or cells: 293FT
T3 sequence (Q9H5V7 whole entry): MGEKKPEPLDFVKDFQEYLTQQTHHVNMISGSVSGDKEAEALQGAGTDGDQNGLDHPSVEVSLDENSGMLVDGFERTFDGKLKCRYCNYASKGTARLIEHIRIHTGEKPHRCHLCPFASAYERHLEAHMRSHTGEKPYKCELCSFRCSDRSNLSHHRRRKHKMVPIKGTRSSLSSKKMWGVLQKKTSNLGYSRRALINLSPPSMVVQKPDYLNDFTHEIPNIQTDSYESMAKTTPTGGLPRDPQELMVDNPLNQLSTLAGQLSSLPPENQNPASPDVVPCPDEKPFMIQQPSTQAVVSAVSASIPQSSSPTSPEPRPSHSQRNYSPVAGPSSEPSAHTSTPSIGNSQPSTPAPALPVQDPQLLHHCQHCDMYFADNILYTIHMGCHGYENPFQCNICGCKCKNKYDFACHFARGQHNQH
Procedure: as §6, §3

C11orf65 = target: T4, C11orf65 (Homo sapiens, UniProt Q8NCR3); experiment: Exogenous protein level in 293FT cells (Fluc/Rluc ratio, HA tag); type: cell-based; conditions: lenalidomide
T4 construct: expressed in transfected cells; host or cells: 293FT
T4 sequence (Q8NCR3 1-313): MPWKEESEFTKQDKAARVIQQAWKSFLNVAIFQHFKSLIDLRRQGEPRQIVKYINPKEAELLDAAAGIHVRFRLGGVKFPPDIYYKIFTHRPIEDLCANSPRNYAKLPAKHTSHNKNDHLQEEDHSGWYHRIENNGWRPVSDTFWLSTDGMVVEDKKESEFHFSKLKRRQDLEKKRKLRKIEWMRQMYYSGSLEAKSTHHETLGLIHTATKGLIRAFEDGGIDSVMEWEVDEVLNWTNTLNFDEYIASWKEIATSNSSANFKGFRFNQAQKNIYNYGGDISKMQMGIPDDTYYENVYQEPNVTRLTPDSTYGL

IKZF3 = target: T5, IKZF3 (Homo sapiens, UniProt Q9UKT9); experiment: Exogenous IKZF protein level in 293FT cells (Fluc/Rluc ratio, HA immunoblot); type: cell-based; conditions: pomalidomide 0.2 μM, 12 hours
T5 construct: expressed in transfected cells; host or cells: 293FT
T5 sequence (Q9UKT9 whole entry): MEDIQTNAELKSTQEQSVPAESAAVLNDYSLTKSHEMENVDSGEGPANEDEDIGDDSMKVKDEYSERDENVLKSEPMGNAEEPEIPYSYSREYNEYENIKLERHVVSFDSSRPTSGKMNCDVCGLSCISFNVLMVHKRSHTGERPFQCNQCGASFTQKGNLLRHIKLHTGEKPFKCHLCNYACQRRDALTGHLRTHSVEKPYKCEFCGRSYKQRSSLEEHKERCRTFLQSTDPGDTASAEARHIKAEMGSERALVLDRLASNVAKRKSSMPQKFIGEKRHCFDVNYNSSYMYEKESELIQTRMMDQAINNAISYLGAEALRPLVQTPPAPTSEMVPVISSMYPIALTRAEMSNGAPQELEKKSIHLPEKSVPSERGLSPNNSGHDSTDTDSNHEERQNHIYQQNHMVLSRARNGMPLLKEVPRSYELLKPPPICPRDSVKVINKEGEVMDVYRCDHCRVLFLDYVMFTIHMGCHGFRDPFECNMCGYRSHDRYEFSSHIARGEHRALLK
Procedure: To verify the change of Fluc/Rluc of ORFs obtained from the 384-well high-throughput screen, each clone was further tested in a 96 well format. […] On the day of transfection 96-well polypropylene plates (Greiner) were used to prepare the transfection mixture. First, a plasmid mixture containing 240 ng of ORF luciferase fusion clone and 480 ng of pcDNA3 was diluted into 120 μl of Opti-MEM reduced serum. Next 14.4 μL of Lipofectamine 2000 was diluted into 120 μl of Opti-MEM reduced serum. 5 minutes later, the plasmid solution was mixed with the diluted Lipofectamine 2000 using a multi-channel pipette. […] The ratio of FLuc/Rluc was calculated for each well. To determine the change of Fluc/Rluc for each ORF, the averaged Fluc/Rluc of LEN treated wells was divided by that of DMSO treated wells. A 2-tailed Student's t test was performed to determine the statistical significance. P value <0.05 was considered significant.
as §3

cereblon = cereblon (Homo sapiens, UniProt Q96SW2); conditions: cited from earlier work
cereblon, sequence (Q96SW2 whole entry): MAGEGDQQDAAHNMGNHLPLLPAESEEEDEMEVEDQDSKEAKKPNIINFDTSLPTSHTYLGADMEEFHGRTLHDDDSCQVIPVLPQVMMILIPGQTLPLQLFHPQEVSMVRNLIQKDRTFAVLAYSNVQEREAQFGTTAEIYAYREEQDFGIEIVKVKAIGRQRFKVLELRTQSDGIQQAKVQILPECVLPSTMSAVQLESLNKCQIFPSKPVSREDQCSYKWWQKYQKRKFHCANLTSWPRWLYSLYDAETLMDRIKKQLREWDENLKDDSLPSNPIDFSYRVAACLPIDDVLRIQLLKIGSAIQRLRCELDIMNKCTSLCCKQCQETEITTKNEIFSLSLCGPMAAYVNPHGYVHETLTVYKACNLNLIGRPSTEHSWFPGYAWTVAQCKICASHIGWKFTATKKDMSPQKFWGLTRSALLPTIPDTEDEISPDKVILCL
cereblon, sequence (Q16531 whole entry partner): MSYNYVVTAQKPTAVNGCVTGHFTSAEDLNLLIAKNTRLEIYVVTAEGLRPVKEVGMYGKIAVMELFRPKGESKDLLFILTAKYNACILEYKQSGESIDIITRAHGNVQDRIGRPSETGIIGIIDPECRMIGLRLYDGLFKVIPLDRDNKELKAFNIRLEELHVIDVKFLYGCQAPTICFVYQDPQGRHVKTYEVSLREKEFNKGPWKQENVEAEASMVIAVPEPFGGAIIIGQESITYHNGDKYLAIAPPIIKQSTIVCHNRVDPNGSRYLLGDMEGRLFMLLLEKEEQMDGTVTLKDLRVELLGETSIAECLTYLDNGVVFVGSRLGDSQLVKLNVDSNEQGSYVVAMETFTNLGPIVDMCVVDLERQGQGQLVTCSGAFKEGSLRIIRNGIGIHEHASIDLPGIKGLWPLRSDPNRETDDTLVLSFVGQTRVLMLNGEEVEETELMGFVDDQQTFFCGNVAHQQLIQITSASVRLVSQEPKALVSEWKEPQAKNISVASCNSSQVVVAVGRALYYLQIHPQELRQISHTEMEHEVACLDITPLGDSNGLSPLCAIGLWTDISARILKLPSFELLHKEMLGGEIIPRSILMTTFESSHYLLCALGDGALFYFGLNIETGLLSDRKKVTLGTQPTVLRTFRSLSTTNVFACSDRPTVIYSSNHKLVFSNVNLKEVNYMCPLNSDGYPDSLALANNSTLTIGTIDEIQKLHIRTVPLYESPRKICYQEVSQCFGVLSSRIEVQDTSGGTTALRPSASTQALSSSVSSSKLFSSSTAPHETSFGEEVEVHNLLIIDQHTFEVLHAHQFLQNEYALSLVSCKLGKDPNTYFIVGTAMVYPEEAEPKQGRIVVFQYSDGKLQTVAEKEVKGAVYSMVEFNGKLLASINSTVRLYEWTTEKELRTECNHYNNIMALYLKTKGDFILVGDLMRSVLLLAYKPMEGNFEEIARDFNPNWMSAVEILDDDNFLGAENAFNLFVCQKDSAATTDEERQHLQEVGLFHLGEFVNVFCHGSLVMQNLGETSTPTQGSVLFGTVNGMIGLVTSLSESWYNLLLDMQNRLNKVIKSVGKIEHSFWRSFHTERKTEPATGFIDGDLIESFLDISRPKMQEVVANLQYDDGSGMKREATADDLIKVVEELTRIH
cereblon, sequence (Q13619 whole entry partner): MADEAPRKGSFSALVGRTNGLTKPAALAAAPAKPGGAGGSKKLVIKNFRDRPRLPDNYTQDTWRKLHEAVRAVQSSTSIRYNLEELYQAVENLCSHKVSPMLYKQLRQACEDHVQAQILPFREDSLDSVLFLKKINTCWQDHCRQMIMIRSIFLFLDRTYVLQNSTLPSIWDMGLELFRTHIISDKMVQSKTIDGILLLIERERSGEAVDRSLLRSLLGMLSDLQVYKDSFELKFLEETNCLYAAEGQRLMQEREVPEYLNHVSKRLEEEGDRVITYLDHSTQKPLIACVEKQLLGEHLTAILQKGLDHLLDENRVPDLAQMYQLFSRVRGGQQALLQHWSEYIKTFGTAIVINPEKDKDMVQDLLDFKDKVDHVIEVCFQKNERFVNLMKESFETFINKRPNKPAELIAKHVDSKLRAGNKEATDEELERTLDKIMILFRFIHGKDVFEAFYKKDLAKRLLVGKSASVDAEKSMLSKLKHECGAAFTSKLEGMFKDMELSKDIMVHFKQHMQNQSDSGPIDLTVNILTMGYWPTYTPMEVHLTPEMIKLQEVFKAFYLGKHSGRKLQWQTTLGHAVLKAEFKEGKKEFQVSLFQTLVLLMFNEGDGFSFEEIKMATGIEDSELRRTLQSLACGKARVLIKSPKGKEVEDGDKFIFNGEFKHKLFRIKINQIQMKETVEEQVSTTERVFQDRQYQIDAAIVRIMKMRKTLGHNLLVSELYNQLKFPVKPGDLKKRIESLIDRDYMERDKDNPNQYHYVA
cereblon, sequence (P62877 whole entry partner): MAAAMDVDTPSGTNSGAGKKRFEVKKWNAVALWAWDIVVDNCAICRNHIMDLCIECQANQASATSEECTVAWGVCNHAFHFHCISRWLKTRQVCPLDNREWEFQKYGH

[5] = target: cereblon autoubiquitination activity (Homo sapiens, UniProt Q96SW2); conditions: cited from earlier work
cereblon autoubiquitination activity, sequence (Q96SW2 whole entry): as the sequence (Q96SW2 whole entry) above
cereblon autoubiquitination activity, sequence (Q16531 whole entry partner): as the sequence (Q16531 whole entry partner) above
cereblon autoubiquitination activity, sequence (Q13619 whole entry partner): as the sequence (Q13619 whole entry partner) above
cereblon autoubiquitination activity, sequence (P62877 whole entry partner): as the sequence (P62877 whole entry partner) above

zebrafish = conditions: in vivo; cited from earlier work
[6] = in vivo; cited from earlier work

With `COC(=O)CNC(=O)C(=O)OC` [DMOG, dimethyloxalylglycine] the “stabilization of HIF1α-Fluc fusion (Fluc/Rluc)” value (HIF1α) was “stabilized”.
In the case of `CC(C)C[C@@H](C=O)NC(=O)[C@H](CC(C)C)NC(=O)[C@H](CC(C)C)NC(=O)OCc1ccccc1` [MG132] (Cbz-Leu-Leu-Leu-aldehyde), the “effect of pretreatment on lenalidomide down-regulation of endogenous IKZF1” value (endogenous IKZF1) is reported as “unless the cells were pretreated”, the “effect of pretreatment on lenalidomide down-regulation of endogenous IKZF3” value (endogenous IKZF3) is reported as “unless the cells were pretreated” and the “stabilization of ORF-Fluc fusions (Fluc/Rluc)” value (proteasomal substrates) is reported as “stabilized many proteasomal substrates”. The “effect on down-regulation of exogenous IKZF1 by lenalidomide” value (IKZF1) was “blocked”.
With `NS(=O)(=O)OC[C@@H]1C[C@@H](n2ccc3c(N[C@H]4CCc5ccccc54)ncnc32)C[C@@H]1O` [MLN4924] the “effect of pretreatment on lenalidomide down-regulation of endogenous IKZF1” value (endogenous IKZF1) was “unless the cells were pretreated”, the “effect of pretreatment on lenalidomide down-regulation of endogenous IKZF3” value (endogenous IKZF3) was “unless the cells were pretreated” and the “effect on down-regulation of exogenous IKZF1 by lenalidomide” value (IKZF1) was “blocked”.
In the case of `CC(C)C[C@H](NC(=O)[C@H](Cc1ccccc1)NC(=O)c1cnccn1)B(O)O` [bortezomib], the antimyeloma activity (myeloma) is given as “has antimyeloma activity”.
With `Nc1cccc2c1CN(C1CCC(=O)NC1=O)C2=O` (stereo not drawn) [lenalidomide] the “IRF4 level (immunoblot, time course)” value (IRF4 [1]; KMS34 cells, following loss of IKZF1 and IKZF3) was “decrease”, the “IRF4 level (immunoblot, time course)” value (IRF4 [1]; L363 cells, high basal IRF4) was “unaffected” and the “IRF4 level (immunoblot, time course)” value (IRF4 [1]; MM1S cells, following loss of IKZF1 and IKZF3) was “decrease”. The IRF4 level (IRF4 [1]; three resistant lines (KMS11, RPMI8226, OCImy5)) was “not down-regulated”, the “IRF4 mRNA” value (IRF4 mRNA) was “Decreased” and the “IRF4 level, previous studies” value (IRF4 [2]) was “down-regulates”. The “sensitivity of IKZF2 mutant to lenalidomide” value [3] was “partially sensitive”, the “cereblon binding and lenalidomide-induced degradation” value (IKZF1 Q146H) was “abrogated” and the “level of exogenous IRF4” value (IRF4 [4]) was “did not affect”. For the same compound, the “level of exogenous IKZF4” value (IKZF4) was “did not affect”, the “level of exogenous IKZF5” value (IKZF5) was “did not affect” and the “level of C11orf65 fused to HA epitope tag instead of Fluc” value (C11orf65) was “unaffected”.
With `Nc1cccc2c1C(=O)N(C1CCC(=O)NC1=O)C2=O` (stereo not drawn) [pomalidomide] the “level of IKZF3 fused to Fluc or HA” value (IKZF3) was “downregulation” and the “level of IKZF1 fused to Fluc or HA” value (IKZF1; pomalidomide 0.2 μM) was “downregulation”.
For `O=C1CCC(N2C(=O)c3ccccc3C2=O)C(=O)N1` (stereo not drawn) [thalidomide], the binding to cereblon (cereblon) is listed as “bind”, the “effect on cereblon autoubiquitination activity” value [5] is listed as “inhibit” and the “effect of treatment of zebrafish” value (zebrafish) is listed as “caused fin defects”. For the same compound, the teratogenicity [6] was “teratogenicity, manifest as profound limb defects”.
